Assay results from patent publication US10799496B2, “Naphthylenyl compounds for long-acting injectable compositions and related methods” (priority 2018, dated 2020).

Assay: Whole blood stability assay
Format: in vitro ADME
Conditions: prodrug 50 nM, fresh pooled human whole blood, 37 degrees C.; read-out: t1/2 at 37 degrees C. in human whole blood
Procedure: Naltrexone prodrug stability was assessed using freshly collected whole blood (within 24-hr collection) from pooled human (n=3) donors. The incubation mixtures were prepared by spiking the prodrugs into pre-warmed (37 degrees C.) fresh whole blood to a final concentration of 50 nM. After gentle mixing, aliquots of incubation mixtures were immediately transferred into four different 96-deep well plates. One plate was used for each time point. The plates were incubated at 37 degrees C. at a shaking speed of 100 rpm. At time points 15, 30, 60 and 120 minutes, the reaction was quenched by addition of a mixture of water and acetonitrile containing the internal standard (naltrexone-D3). Time point 0 minutes was prepared separately by spiking the prodrugs into a quenched whole blood to obtain a final concentration of 50 nM. All samples were vortexed at a low speed for 15 min and centrifuged at 3900 rpm for 15 min. Supernatants were transferred into 96-well plates for LC-MS/MS analysis to monitor the depletion of the prodrugs and the formation of naltrexone.
The amount of remaining prodrug and released naltrexone for each sample was quantitated against the calibration curves prepared with the whole blood. The human whole blood was purchased from BioreclamationIVT (Westbury, N.Y., USA). Naltrexone-D3 was purchased from CERILLIANT® (Round Rock, Tex., USA). […] Where multiple runs have been completed, average values are reported.

Row | Structure (SMILES) | half-life at 50 nM [min]
1 | Cc1c(CC(=O)Oc2ccc3c4c2O[C@H]2C(=O)CC[C@@]5(O)[C@@H](C3)N(CC3CC3)CC[C@]425)ccc2c(C)c(CC(=O)Oc3ccc4c5c3O[C@H]3C(=O)CC[C@@]6(O)[C@@H](C4)N(CC4CC4)CC[C@]536)ccc12 [Compound 7, bis((4R,4aS,7aR,12bS)-3-(cyclopropylmethyl)-4a-hydroxy-7-oxo-2,3,4,4a,5,6,7,7a-octahydro-1H-4,12-methanobenzofuro[3,2-e]isoquinolin-9-yl) 2,2′-(1,5-dimethylnaphthalene-2,6-diyl)diacetate] | 58.6
2 | O=C(Cc1cccc2cccc(CC(=O)Oc3ccc4c5c3O[C@H]3C(=O)CC[C@@]6(O)[C@@H](C4)N(CC4CC4)CC[C@]536)c12)Oc1ccc2c3c1O[C@H]1C(=O)CC[C@@]4(O)[C@@H](C2)N(CC2CC2)CC[C@]314 [Compound 9, bis((4R,4aS,7aR,12bS)-3-(cyclopropylmethyl)-4a-hydroxy-7-oxo-2,3,4,4a,5,6,7,7a-octahydro-1H-4,12-methanobenzofuro[3,2-e]isoquinolin-9-yl) 2,2′-(naphthalene-1,8-diyl)diacetate] | 40.9
3 | O=C(Cc1ccc2c(F)c(CC(=O)Oc3ccc4c5c3O[C@H]3C(=O)CC[C@@]6(O)[C@@H](C4)N(CC4CC4)CC[C@]536)ccc2c1F)Oc1ccc2c3c1O[C@H]1C(=O)CC[C@@]4(O)[C@@H](C2)N(CC2CC2)CC[C@]314 [Compound 5, bis((4R,4aS,7aR,12bS)-3-(cyclopropylmethyl)-4a-hydroxy-7-oxo-2,3,4,4a,5,6,7,7a-octahydro-1H-4,12-methanobenzofuro[3,2-e]isoquinolin-9-yl) 2,2′-(1,5-difluoronaphthalene-2,6-diyl)diacetate] | 20.4
4 | O=C(Oc1ccc2c3c1O[C@H]1C(=O)CC[C@@]4(O)[C@@H](C2)N(CC2CC2)CC[C@]314)c1ccc(C(=O)Oc2ccc3c4c2O[C@H]2C(=O)CC[C@@]5(O)[C@@H](C3)N(CC3CC3)CC[C@]425)cc1 [Reference Compound A, NTX-3-terephthaloyl-NTX, reference compound] | 54.7
5 | CC(=O)Oc1c(CC(=O)Oc2ccc3c4c2O[C@H]2C(=O)CC[C@@]5(O)[C@@H](C3)N(CC3CC3)CC[C@]425)ccc2c(OC(C)=O)c(CC(=O)Oc3ccc4c5c3O[C@H]3C(=O)CC[C@@]6(O)[C@@H](C4)N(CC4CC4)CC[C@]536)ccc12 [Compound 3, bis((4R,4aS,7aR,12bS)-3-(cyclopropylmethyl)-4a-hydroxy-7-oxo-2,3,4,4a,5,6,7,7a-octahydro-1H-4,12-methanobenzofuro[3,2-e]isoquinolin-9-yl) 2,2′-(1,5-diacetoxynaphthalene-2,6-diyl)diacetate] | 14.8
6 | O=C(Cc1ccc2ccc(CC(=O)Oc3ccc4c5c3O[C@H]3C(=O)CC[C@@]6(O)[C@@H](C4)N(CC4CC4)CC[C@]536)cc2c1)Oc1ccc2c3c1O[C@H]1C(=O)CC[C@@]4(O)[C@@H](C2)N(CC2CC2)CC[C@]314 [Compound 10, bis((4R,4aS,7aR,12bS)-3-(cyclopropylmethyl)-4a-hydroxy-7-oxo-2,3,4,4a,5,6,7,7a-octahydro-1H-4,12-methanobenzofuro[3,2-e]isoquinolin-9-yl) 2,2′-(naphthalene-2,7-diyl)diacetate] | 14.7
7 | O=C(CCc1ccc2cc(CCC(=O)Oc3ccc4c5c3O[C@H]3C(=O)CC[C@@]6(O)[C@@H](C4)N(CC4CC4)CC[C@]536)ccc2c1)Oc1ccc2c3c1O[C@H]1C(=O)CC[C@@]4(O)[C@@H](C2)N(CC2CC2)CC[C@]314 [Compound 8, bis((4R,4aS,7aR,12bS)-3-(cyclopropylmethyl)-4a-hydroxy-7-oxo-2,3,4,4a,5,6,7,7a-octahydro-1H-4,12-methanobenzofuro[3,2-e]isoquinolin-9-yl) 3,3′-(naphthalene-2,6-diyl)dipropionate] | 26.3
